Experimental data taken from patent US20260183321A1, “TREATMENT OF CORONAVIRUS INFECTIONS WITH ANTIMICROBIAL PHOSPHOLIPID COMPOSITIONS” (NATIONAL JEWISH HEALTH, priority 2022, published 2026).

How the values were obtained:
[1] = test system: SARS-CoV-2 variant, B.1.351; type: cell-based
[2] = test system: B.1.617.2 (delta variant); type: cell-based, SARS-CoV-2; conditions: healthy control subjects n=4, m.o.i. 0.1, 48 hrs; 10 mg/ml POPG, 4 mg/ml PI, prophylactic
[3] = test system: B1.1.529 (omicron variant); type: cell-based, SARS-CoV-2; conditions: healthy control subjects n=4, m.o.i. 0.1, 48 Hr; 10 mg/ml POPG, 4 mg/ml PI, prophylactic

Compound | attenuation of B.1.351 replication [1] [%] | B.1.617.2 (delta variant) replication [2] | B.1.1.529 (Omicron variant) replication [3]
CCCCCCCC/C=C\CCCCCCCC(=O)O[C@H](COC(=O)CCCCCCCCCCCCCCC)COP(=O)(O)OCC(O)CO (stereo partly drawn) [POPG, palmitoyl-oleoyl-phosphatidylglycerol] | 50 | inhibited | inhibited
phosphatidylinositol [PI] | 70 | inhibited | inhibited
